Results: US8993542B2, “Methods of treating viral infections” (priority 2008, dated 2015)
Read-outs that look alike come from different tables or passages of the source.

Key:
PBMCs = assay: Cytotoxicity (TC50) in PBMCs; type: cell-based
[1] = Cytotoxicity (TC50) in PBMCs; type: cell-based; conditions: PBMCs
HIV-1 Subtype Isolates = assay: Activity against HIV-1 subtype isolates in PBMCs, RT endpoint; conditions: for IC50: Human immunodeficiency virus 1, PBMC
HIV-2 Isolates = assay: Activity against HIV-2 isolates in PBMCs, RT endpoint; type: cell-based; conditions: for IC50: Human immunodeficiency virus 2, PBMC

CCCCCCCCCCCCCCCCOCCCOP(=O)(O)CO[C@H](C)Cn1cnc2c(N)ncnc21 [CMX157, Hexadecyloxypropyl-9-R-[2-(Phosphonomethoxy)Propyl]-Adenine] showed a CC50 (PBMCs; HIV-2 isolate CBL-20) of over 1000 nM, a CC50 (PBMCs; HIV-2 isolate CDC310342) of over 1000 nM and a CC50 (PBMCs; isolate 96USHIPS7, subtype B, read-out: TC 50 (the source's name)) of over 1000 nM. The CC50 (PBMCs; isolate BCF01, subtype O, read-out: TC 50 (the source's name)) was over 1000 nM, the CC50 (PBMCs; isolate BCF02, subtype O, read-out: TC 50 (the source's name)) was over 1000 nM and the CC50 (PBMCs; isolate BCF03, subtype O, read-out: TC 50 (the source's name)) was over 1000 nM. It also gave a CC50 (PBMCs; isolate BR/92/014, subtype B, read-out: TC 50 (the source's name)) of over 1000 nM, a CC50 (PBMCs; isolate BR/92/025, subtype C, read-out: TC 50 (the source's name)) of over 1000 nM and a CC50 (PBMCs; isolate BR/93/019, subtype F, read-out: TC 50 (the source's name)) of over 1000 nM. For the same compound, the CC50 (PBMCs; isolate BR/93/020, subtype F, read-out: TC 50 (the source's name)) was over 1000 nM, the CC50 (PBMCs; isolate BR/93/029, subtype F, read-out: TC 50 (the source's name)) was over 1000 nM and the CC50 (PBMCs; isolate CMU06, subtype E, read-out: TC 50 (the source's name)) was over 1000 nM. The CC50 (PBMCs; isolate CMU08, subtype E, read-out: TC 50 (the source's name)) was over 1000 nM, the CC50 (PBMCs; isolate G3, subtype G, read-out: TC 50 (the source's name)) was over 1000 nM and the CC50 (PBMCs; isolate IN/93/101, subtype C, read-out: TC 50 (the source's name)) was over 1000 nM. For the same compound, the CC50 (PBMCs; isolate JR-CSF, subtype B, read-out: TC 50 (the source's name)) was over 1000 nM, the CC50 (PBMCs; isolate JV1083, subtype G, read-out: TC 50 (the source's name)) was over 1000 nM and the CC50 (PBMCs; isolate MW/93/959, subtype C, read-out: TC 50 (the source's name)) was over 1000 nM. It also gave a CC50 (PBMCs; isolate RU132, subtype G, read-out: TC 50 (the source's name)) of over 1000 nM, a CC50 (PBMCs; isolate RW/92/009, subtype A, read-out: TC 50 (the source's name)) of over 1000 nM and a CC50 (PBMCs; isolate TH/92/026, subtype B, read-out: TC 50 (the source's name)) of over 1000 nM. For the same compound, the CC50 (PBMCs; isolate TH/93/073, subtype E, read-out: TC 50 (the source's name)) was over 1000 nM, the CC50 (PBMCs; isolate UG/92/001, subtype D, read-out: TC 50 (the source's name)) was over 1000 nM and the CC50 (PBMCs; isolate UG/92/024, subtype D, read-out: TC 50 (the source's name)) was over 1000 nM. The CC50 (PBMCs; isolate UG/92/029, subtype A, read-out: TC 50 (the source's name)) was over 1000 nM, the CC50 (PBMCs; isolate UG/92/037, subtype A, read-out: TC 50 (the source's name)) was over 1000 nM and the CC50 (PBMCs; isolate UG/92/046, subtype D, read-out: TC 50 (the source's name)) was over 1000 nM. It also gave a CC50 ([1]; HIV-2 isolate CDC310319) of over 1000 nM, a CC50 ([1]; human, isolate ADA, subtype B, read-out: TC 50 (the source's name)) of over 1000 nM and an IC50 (HIV-1 Subtype Isolates; read-out: IC50s against all major HIV subtypes, subtypes A-G, O and HIV-2, Tables 2 and 3) of 0.2 to 7.2 nM. The IC50 (HIV-1 Subtype Isolates; read-out: RT Endpoint IC50, isolate 96USHIPS7, subtype B) was 4.8 nM, the IC50 (HIV-1 Subtype Isolates; read-out: RT Endpoint IC50, isolate ADA, subtype B) was 1.08 nM and the IC50 (HIV-1 Subtype Isolates; read-out: RT Endpoint IC50, isolate BCF01, subtype O) was 7.18 nM. The IC50 (HIV-1 Subtype Isolates; read-out: RT Endpoint IC50, isolate BCF02, subtype O) was 2.47 nM, the IC50 (HIV-1 Subtype Isolates; read-out: RT Endpoint IC50, isolate BCF03, subtype O) was 5.29 nM and the IC50 (HIV-1 Subtype Isolates; read-out: RT Endpoint IC50, isolate BR/92/014, subtype B) was 1.58 nM. It also gave an IC50 (HIV-1 Subtype Isolates; read-out: RT Endpoint IC50, isolate BR/92/025, subtype C) of 3.43 nM, an IC50 (HIV-1 Subtype Isolates; read-out: RT Endpoint IC50, isolate BR/93/019, subtype F) of 6.4 nM and an IC50 (HIV-1 Subtype Isolates; read-out: RT Endpoint IC50, isolate BR/93/020, subtype F) of 0.73 nM. It also gave an IC50 (HIV-1 Subtype Isolates; read-out: RT Endpoint IC50, isolate BR/93/029, subtype F) of 1.03 nM, an IC50 (HIV-1 Subtype Isolates; read-out: RT Endpoint IC50, isolate CMU06, subtype E) of 1.03 nM and an IC50 (HIV-1 Subtype Isolates; read-out: RT Endpoint IC50, isolate CMU08, subtype E) of 2.81 nM. The IC50 (HIV-1 Subtype Isolates; read-out: RT Endpoint IC50, isolate G3, subtype G) was 2.68 nM, the IC50 (HIV-1 Subtype Isolates; read-out: RT Endpoint IC50, isolate IN/93/101, subtype C) was 0.53 nM and the IC50 (HIV-1 Subtype Isolates; read-out: RT Endpoint IC50, isolate JR-CSF, subtype B) was 0.68 nM. The IC50 (HIV-1 Subtype Isolates; read-out: RT Endpoint IC50, isolate JV1083, subtype G) was 2.32 nM, the IC50 (HIV-1 Subtype Isolates; read-out: RT Endpoint IC50, isolate MW/93/959, subtype C) was 4.5 nM and the IC50 (HIV-1 Subtype Isolates; read-out: RT Endpoint IC50, isolate RU132, subtype G) was 1.63 nM. The IC50 (HIV-1 Subtype Isolates; read-out: RT Endpoint IC50, isolate RW/92/009, subtype A) was 1.75 nM, the IC50 (HIV-1 Subtype Isolates; read-out: RT Endpoint IC50, isolate TH/92/026, subtype B) was 0.44 nM and the IC50 (HIV-1 Subtype Isolates; read-out: RT Endpoint IC50, isolate TH/93/073, subtype E) was 2.95 nM. For the same compound, the IC50 (HIV-1 Subtype Isolates; read-out: RT Endpoint IC50, isolate UG/92/001, subtype D) was 5.16 nM, the IC50 (HIV-1 Subtype Isolates; read-out: RT Endpoint IC50, isolate UG/92/024, subtype D) was 0.3 nM and the IC50 (HIV-1 Subtype Isolates; read-out: RT Endpoint IC50, isolate UG/92/029, subtype A) was 5.84 nM. The IC50 (HIV-1 Subtype Isolates; read-out: RT Endpoint IC50, isolate UG/92/037, subtype A) was 2.3 nM, the IC50 (HIV-1 Subtype Isolates; read-out: RT Endpoint IC50, isolate UG/92/046, subtype D) was 0.96 nM and the “TI (TC50/IC50)” value (HIV-1 Subtype Isolates; isolate 96USHIPS7, subtype B) was over 208. For the same compound, the “TI (TC50/IC50)” value (HIV-1 Subtype Isolates; isolate ADA, subtype B) was over 925, the “TI (TC50/IC50)” value (HIV-1 Subtype Isolates; isolate BCF01, subtype O) was over 139 and the “TI (TC50/IC50)” value (HIV-1 Subtype Isolates; isolate BCF02, subtype O) was over 405. For the same compound, the “TI (TC50/IC50)” value (HIV-1 Subtype Isolates; isolate BCF03, subtype O) was over 189, the “TI (TC50/IC50)” value (HIV-1 Subtype Isolates; isolate BR/92/014, subtype B) was over 633 and the “TI (TC50/IC50)” value (HIV-1 Subtype Isolates; isolate BR/92/025, subtype C) was over 291. The “TI (TC50/IC50)” value (HIV-1 Subtype Isolates; isolate BR/93/019, subtype F) was over 156, the “TI (TC50/IC50)” value (HIV-1 Subtype Isolates; isolate BR/93/020, subtype F) was >1,362 and the “TI (TC50/IC50)” value (HIV-1 Subtype Isolates; isolate BR/93/029, subtype F) was over 972. The “TI (TC50/IC50)” value (HIV-1 Subtype Isolates; isolate CMU06, subtype E) was over 970, the “TI (TC50/IC50)” value (HIV-1 Subtype Isolates; isolate CMU08, subtype E) was over 356 and the “TI (TC50/IC50)” value (HIV-1 Subtype Isolates; isolate G3, subtype G) was over 373. For the same compound, the “TI (TC50/IC50)” value (HIV-1 Subtype Isolates; isolate IN/93/101, subtype C) was >1,892, the “TI (TC50/IC50)” value (HIV-1 Subtype Isolates; isolate JR-CSF, subtype B) was >1,480 and the “TI (TC50/IC50)” value (HIV-1 Subtype Isolates; isolate JV1083, subtype G) was over 431. For the same compound, the “TI (TC50/IC50)” value (HIV-1 Subtype Isolates; isolate MW/93/959, subtype C) was over 222, the “TI (TC50/IC50)” value (HIV-1 Subtype Isolates; isolate RU132, subtype G) was over 615 and the “TI (TC50/IC50)” value (HIV-1 Subtype Isolates; isolate RW/92/009, subtype A) was over 571. For the same compound, the “TI (TC50/IC50)” value (HIV-1 Subtype Isolates; isolate TH/92/026, subtype B) was >2,278, the “TI (TC50/IC50)” value (HIV-1 Subtype Isolates; isolate TH/93/073, subtype E) was over 339 and the “TI (TC50/IC50)” value (HIV-1 Subtype Isolates; isolate UG/92/001, subtype D) was over 194. For the same compound, the “TI (TC50/IC50)” value (HIV-1 Subtype Isolates; isolate UG/92/024, subtype D) was >3,346, the “TI (TC50/IC50)” value (HIV-1 Subtype Isolates; isolate UG/92/029, subtype A) was over 171 and the “TI (TC50/IC50)” value (HIV-1 Subtype Isolates; isolate UG/92/037, subtype A) was over 435. The “TI (TC50/IC50)” value (HIV-1 Subtype Isolates; isolate UG/92/046, subtype D) was >1,039, the “TI (TC50/IC50)” value (HIV-2 Isolates; HIV-2 isolate CBL-20) was over 223 and the “TI (TC50/IC50)” value (HIV-2 Isolates; HIV-2 isolate CDC310319) was over 564. The “TI (TC50/IC50)” value (HIV-2 Isolates; HIV-2 isolate CDC310342) was over 232, the IC50 (HIV-2 Isolates; HIV-2 isolate CBL-20) was 4.48 nM and the IC50 (HIV-2 Isolates; HIV-2 isolate CDC310319) was 1.77 nM. For the same compound, the IC50 (HIV-2 Isolates; HIV-2 isolate CDC310342) was 4.31 nM.
